Data taken from ChEMBL document CHEMBL4359923, “One-step Heck Reaction Generates Nonimmunosuppressive FK506 Analogs for Pharmacological BMP Activation” (ACS Med Chem Lett, 2019).
Activity calls are given as the source filed them. The calls are words filed in the database; no cut-off is given here.

Key:
[1] = target: T1, Peptidyl-prolyl cis-trans isomerase FKBP1A (Homo sapiens, UniProt P62942); assay: Induction of FKBP12-mediated SMAD1/5 phosphorylation in human Jurkat cells measured after 2 hrs by Western blot analysis; assay type: cell-based
T1 sequence (P62942 whole entry): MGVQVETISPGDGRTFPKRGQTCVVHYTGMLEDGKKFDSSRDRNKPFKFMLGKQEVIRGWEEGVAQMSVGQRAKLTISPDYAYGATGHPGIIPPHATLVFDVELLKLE

[2] = target: T1, Peptidyl-prolyl cis-trans isomerase FKBP1A; assay: Inhibition of FKBP12-mediated calcineurin activation in PMA/ionomycin stimulated human Jurkat cells transfected with NFAT-Luc assessed as NFAT reporter activity up to 10 uM pretreated for 30 mins prior to PMA/ionomycin activation measured after 6 hrs by luciferase reporter assay; assay type: cell-based
[3] = target: T1, Peptidyl-prolyl cis-trans isomerase FKBP1A; assay: Activation of FKBP12-mediated BMP signaling pathway in human Jurkat cells transfected with BRE-Luc at 1 nM to 1 uM measured after 18 hrs by luciferase reporter assay; assay type: cell-based
HUVEC [4] = assay: Cytotoxicity against human HUVEC cells assessed as inhibition of cell growth at 1 to 10 uM measured after 72 hrs by resazurin dye based assay
[5] = target: T1, Peptidyl-prolyl cis-trans isomerase FKBP1A; assay: Inhibition of FKBP12-mediated calcineurin activation in PMA/ionomycin stimulated human Jurkat cells transfected with NFAT-Luc assessed as reduction in NFAT reporter activity at 1 uM pretreated for 30 mins prior to PMA/ionomycin activation measured after 6 hrs by luciferase reporter assay; assay type: cell-based
HUVEC [6] = assay: Cytotoxicity against human HUVEC cells assessed as inhibition of cell growth at 10 uM measured after 72 hrs by resazurin dye based assay

With `CO[C@H]1C[C@@H](C)C/C(C)=C/[C@@H](C/C=C/c2ccnc(N)c2)C(=O)C[C@H](O)[C@@H](C)[C@@H](/C(C)=C/[C@@H]2CC[C@@H](O)[C@H](OC)C2)OC(=O)[C@@H]2CCCCN2C(=O)C(=O)[C@]2(O)O[C@H]1[C@@H](OC)C[C@H]2C` the Activity [1] was “Dose-dependent effect”, the “inhibition (INH)” value [2] was “Not Active” and the Activity [3] was “Active”. For the same compound, the Activity (HUVEC [4]) was “Toxic”.

For `CO[C@H]1C[C@@H](C)C/C(C)=C/[C@@H](C/C=C/c2ccccc2N)C(=O)C[C@H](O)[C@@H](C)[C@@H](/C(C)=C/[C@@H]2CC[C@@H](O)[C@H](OC)C2)OC(=O)[C@@H]2CCCCN2C(=O)C(=O)[C@]2(O)O[C@H]1[C@@H](OC)C[C@H]2C`, the “inhibition (INH)” value [5] was “Active”, the Activity [3] was “Active” and the Activity (HUVEC [4]) was “Toxic”.

`CO[C@H]1C[C@@H](C)C/C(C)=C/[C@@H](C/C=C/c2ccnc3c(F)c(F)ccc23)C(=O)C[C@H](O)[C@@H](C)[C@@H](/C(C)=C/[C@@H]2CC[C@@H](O)[C@H](OC)C2)OC(=O)[C@@H]2CCCCN2C(=O)C(=O)[C@]2(O)O[C@H]1[C@@H](OC)C[C@H]2C` was tested, and the “inhibition (INH)” value [5] was “Active”, the Activity (HUVEC [6]) was “Toxic” and the Activity [3] was “Active”.

For `CO[C@H]1C[C@@H](C)C/C(C)=C/[C@@H](C/C=C/c2ccnc3ccccc23)C(=O)C[C@H](O)[C@@H](C)[C@@H](/C(C)=C/[C@@H]2CC[C@@H](O)[C@H](OC)C2)OC(=O)[C@@H]2CCCCN2C(=O)C(=O)[C@]2(O)O[C@H]1[C@@H](OC)C[C@H]2C`, the “inhibition (INH)” value [5] was “Active”, the Activity (HUVEC [6]) was “Toxic” and the Activity [3] was “Active”.

For `CNc1ccc(/C=C/C[C@@H]2/C=C(\C)C[C@H](C)C[C@H](OC)[C@H]3O[C@@](O)(C(=O)C(=O)N4CCCC[C@H]4C(=O)O[C@H](/C(C)=C/[C@@H]4CC[C@@H](O)[C@H](OC)C4)[C@H](C)[C@@H](O)CC2=O)[C@H](C)C[C@@H]3OC)cc1`, the “inhibition (INH)” value [5] was “Active”, the Activity [3] was “Active” and the Activity (HUVEC [4]) was “Toxic”.

`CO[C@H]1C[C@@H](C)C/C(C)=C/[C@@H](C/C=C/c2ccc(N)cc2)C(=O)C[C@H](O)[C@@H](C)[C@@H](/C(C)=C/[C@@H]2CC[C@@H](O)[C@H](OC)C2)OC(=O)[C@@H]2CCCCN2C(=O)C(=O)[C@]2(O)O[C@H]1[C@@H](OC)C[C@H]2C` was tested, and the “inhibition (INH)” value [5] was “Active”, the Activity [3] was “Active” and the Activity (HUVEC [4]) was “Toxic”.

With `CO[C@H]1C[C@@H](C)C/C(C)=C/[C@@H](C/C=C/c2ccncc2N)C(=O)C[C@H](O)[C@@H](C)[C@@H](/C(C)=C/[C@@H]2CC[C@@H](O)[C@H](OC)C2)OC(=O)[C@@H]2CCCCN2C(=O)C(=O)[C@]2(O)O[C@H]1[C@@H](OC)C[C@H]2C` the Activity [1] was “Dose-dependent effect”, the “inhibition (INH)” value [2] was “Not Active” and the Activity [3] was “Active”. The Activity (HUVEC [4]) was “Toxic”.

In the case of `CO[C@H]1C[C@@H](C)C/C(C)=C/[C@@H](C/C=C/c2cccc(N)c2)C(=O)C[C@H](O)[C@@H](C)[C@@H](/C(C)=C/[C@@H]2CC[C@@H](O)[C@H](OC)C2)OC(=O)[C@@H]2CCCCN2C(=O)C(=O)[C@]2(O)O[C@H]1[C@@H](OC)C[C@H]2C`, the “inhibition (INH)” value [5] is reported as “Active”, the Activity [3] is reported as “Active” and the Activity (HUVEC [4]) is reported as “Toxic”.

With `CO[C@H]1C[C@@H](C)C/C(C)=C/[C@@H](C/C=C/c2ccncc2)C(=O)C[C@H](O)[C@@H](C)[C@@H](/C(C)=C/[C@@H]2CC[C@@H](O)[C@H](OC)C2)OC(=O)[C@@H]2CCCCN2C(=O)C(=O)[C@]2(O)O[C@H]1[C@@H](OC)C[C@H]2C` the Activity [1] was “Dose-dependent effect”, the “inhibition (INH)” value [2] was “Not Active” and the Activity [3] was “Active”. For the same compound, the Activity (HUVEC [4]) was “Toxic”.

With `CO[C@H]1C[C@@H](C)C/C(C)=C/[C@@H](C/C=C/c2ccnc3cc(F)ccc23)C(=O)C[C@H](O)[C@@H](C)[C@@H](/C(C)=C/[C@@H]2CC[C@@H](O)[C@H](OC)C2)OC(=O)[C@@H]2CCCCN2C(=O)C(=O)[C@]2(O)O[C@H]1[C@@H](OC)C[C@H]2C` the “inhibition (INH)” value [5] was “Active”, the Activity (HUVEC [6]) was “Toxic” and the Activity [3] was “Active”.

For `CO[C@H]1C[C@@H](C)C/C(C)=C/[C@@H](C/C=C/c2ccncc2F)C(=O)C[C@H](O)[C@@H](C)[C@@H](/C(C)=C/[C@@H]2CC[C@@H](O)[C@H](OC)C2)OC(=O)[C@@H]2CCCCN2C(=O)C(=O)[C@]2(O)O[C@H]1[C@@H](OC)C[C@H]2C`, the “inhibition (INH)” value [5] was “Active”, the Activity [3] was “Active” and the Activity (HUVEC [4]) was “Toxic”.

With `C=CC[C@@H]1/C=C(\C)C[C@H](C)C[C@H](OC)[C@H]2O[C@@](O)(C(=O)C(=O)N3CCCC[C@H]3C(=O)O[C@H](/C(C)=C/[C@@H]3CC[C@@H](O)[C@H](OC)C3)[C@H](C)[C@@H](O)CC1=O)[C@H](C)C[C@@H]2OC` [TACROLIMUS ANHYDROUS] the Activity [1] was “Dose-dependent effect”, the “inhibition (INH)” value [5] was “Active” and the Activity [3] was “Active”. For the same compound, the Activity (HUVEC [4]) was “Toxic”.
